Patent US20140113306A1, “DIAGNOSTIC AND SCREENING METHODS FOR INFLAMMATION” (Rutgers, The State University of New Jersey, priority 2012, published 2014)

What was measured:
TLR4 = assay: Endotoxin/TLR4 signaling block in non-diabetic donor blood challenged with endotoxin in vitro; type: cell-based, human; conditions: 1 hour pretreatment, polymyxin 50 μg/ml or CLI-095; endotoxin 10 ng/ml 2 hours
Method: (§1) (A) Blood samples from a non-diabetic (N) and a type 2 diabetic patient were separated into plasma and cellular fractions (cellular F.) and mutually exchanged. Thus, plasma derived from the non-diabetic donor was added to the diabetic patient cellular fraction, and vice versa. Leukocytes were isolated at indicated time post-exchange, lysed and analyzed by immunoblotting. (B) Blood samples from a non-diabetic donor were treated with insulin (0.1 unit/ml) for the indicated time (lanes 1-7) or with endotoxin for 2 hours (lane 8) (C) Blood samples from a non-diabetic donor were untreated (UN) or treated for 1 hour with polymyxin (50 μg/ml) or CL-095 (30 μM). Endotoxin (Endo; 10 ng/ml) was next added to specified samples (lanes 2-4). Leukocytes were isolated 2 hours tater. (D and E) Blood samples obtained from a non-diabetic donor and two type 2 diabetic patients (identified as diabetic 1 and diabetic 2) were all separated into plasma and cellular fraction. The cellular fractions were either untreated (lane 4) or treated with polymyxin (lanes 5 and 8) or CLI-095 (lanes 6 and 9) for 1 hour. The samples shown in lanes 1-3 were not subjected to plasma exchange. (D) Plasma derived from diabetic 1 (lanes 4-6) or diabetic 2 (lanes 7-9) was added to the non-diabetic donor cellular fractions and (E) vice versa. The leukocytes were isolated at 4 hours post-exchange. Samples were analyzed as in (A).
(§2) Endotoxin (lipopolysaccharide from Escherichia coli 0111B4, Sigma, 10 ng/ml). Insulin (Humalog Mix 50/50; Lilly) was used at the indicated concentrations (0.05-1 unit/ml), Polymyxin (Invivogen, 50 μg/ml), CLI-095 (Invivogen; 3 μM), LY294002 (Cayman Chemical; 10 μM), Rapamycin (Tocris Bioscience; 100 nM), YC-1 (Sigma; 30 μM), Acriflavine (ACF; Sigma; 5 μM)
(§3) Human Subjects were enrolled in the study following the Institutional Review Board of Rutgers Robert Wood Johnson Medical School approval. Written informed consent was obtained from all participates prior to inclusion in the study. Blood was drawn into EDTA-containing tubes. To isolate leukocytes, lysis buffer (bicarbonate-buffered ammonium chloride solution, 0.826% NH4Cl, 0.1% KHCO3, 0.0037% Na4EDTA in H2O) was added at a ratio of 20:1 (lysis buffer/blood). Once the erythrocytes lysed, the samples were centrifuged for […] at 400×g. The leukocyte pellet was washed once with phosphate-buffered saline. The pellet was suspended in RIPA buffer (1% Triton X-100, 1% deoxycholic acid, 10 mM Tris-HCl, pH 7.2, 158 mM NaCl, 0.1% SDS, and 1 mM PMSF and complete protease inhibitor mixture (Roche Applied Science)). Lysates containing equal protein amounts were analyzed by immunoblotting. Where indicated, endotoxin, insulin, and/or inhibitors were added to the whole blood samples prior to leukocyte isolation.
To determine whether endotoxin is the component in diabetic patient plasma that regulates leukocyte activation, endotoxin/TLR4 signaling was blocked using two pharmacologic inhibitors, polymyxin and. CLI-095. Polymyxin is a natural polypeptide antibiotic that binds the lipid A moiety of endotoxin, and consequently interferes with endotoxin binding to TLR4. CLI-095, also known as TAK-242, is a specific TLR4 signaling inhibitor. As leukocytes express multiple Toll-like receptors (TLR) including TLR4, which binds endotoxin, TLR4 functions in the regulation of Akt/S6K1/mTOR axis is of interest.

[1] = system: non-diabetic donor leukocytes; assay: Plasma exchange: diabetic patient plasma added to non-diabetic donor cellular fraction; type: cell-based, human; conditions: cellular fraction treated 1 hour before exchange; leukocytes isolated 4 hours post-exchange
Method: (A) Blood samples from a non-diabetic (N) and a type 2 diabetic patient were separated into plasma and cellular fractions (cellular F.) and mutually exchanged. Thus, plasma derived from the non-diabetic donor was added to the diabetic patient cellular fraction, and vice versa. Leukocytes were isolated at indicated time post-exchange, lysed and analyzed by immunoblotting. (B) Blood samples from a non-diabetic donor were treated with insulin (0.1 unit/ml) for the indicated time (lanes 1-7) or with endotoxin for 2 hours (lane 8) (C) Blood samples from a non-diabetic donor were untreated (UN) or treated for 1 hour with polymyxin (50 μg/ml) or CL-095 (30 μM). Endotoxin (Endo; 10 ng/ml) was next added to specified samples (lanes 2-4). Leukocytes were isolated 2 hours tater. […] Samples were analyzed as in (A).
For the plasma mixing experiments, the blood samples were sedimented at unit gravity for 1.5 hours. […] The leukocytes were subsequently isolated, lysed, and analyzed by immunoblotting.
Next, non-diabetic donor leukocytes and leukocytes from two type 2 diabetic patients were either untreated, or treated with either polymyxin or CLI-095 prior to the plasma/leukocytes exchange. As shown above, pS6K1, pIRS-1, and HIF-1α expression were all detected in non-diabetic donor leukocytes following exposure to diabetic patients plasma. […]

liver = conditions: pretreatment, endotoxin challenge; cited from earlier work
human leukocytes = assay: Ex vivo whole blood pretreated with inhibitors, then endotoxin; leukocyte Western blotting and ATP analyses; type: cell-based; conditions: for endotoxin-induced AMPKα degradation (change in AMPKα expression) / endotoxin-induced HIF-1α expression / endotoxin-induced autophagy (LC3-I/LC3-II) / endotoxin-induced decline in ATP levels: whole blood treated 2 hours with inhibitor prior to endotoxin 10 ng/ml; for autophagy in endotoxin-treated leukocytes: FIG. 7B: LY 10 μM 30 min, RAPA 100 nM 2 hours, YC-1 30 μM 30 min, ACF 5 μM 2 hours, then endotoxin 10 ng/ml 2 hours
Method: (A) Blood samples were treated with endotoxin (LPS; […]) for the indicated time. (B-D) Blood samples were untreated (control), treated for 2 hours with DMSO (vehicle), or the specified inhibitors prior to the addition of endotoxin (10 ng/ml). The inhibitors tested included: LY294002 (LY), Rapamycin (RAPA), YC-1, acriflavine (ACF), metformin (Met) and SRT1720 (SRT). Leukocytes were isolated at the indicated time post-endotoxin treatment and lysed. Lysates were subjected to Western blotting analyses, and where shown, ATP analyses. Details are provided in the supplement. (E) Proposed model for endotoxin-induced metabolic derangement in human leukocytes.
(§4) FIG. 7. provides the Toll-like receptor 4 signaling pathway in human leukocytes and the antagonistic effect of insulin. (A) Blood samples were treated with endotoxin (10 ng/ml) for the indicated time. (B) Blood samples were untreated (UN), or treated with DMSO (vehicle; 0.05%; 2 hours), LY294002 (LY; 10 μM; 30 min), rapamycin (RAPA; 100 nM, 2 ‘hours), YC-1 (30 μM; 30 min), or acriflavine (ACF; 5 μM; 2 hours). The samples shown in lanes 3-8 were subsequently treated with endotoxin (10 ng/ml) for 2 hours. (C) Blood samples were untreated (UN; lane 1), treated with endotoxin (10 ng/ml; lane 2) for 2 hours, or with insulin (1 unit/ml) for 2 hours (lane 3) or 1 hour (lane 4). The samples shown in lanes 5-9 were treated with endotoxin (10 ng/ml) plus insulin at the indicated concentration (1-0.05 unit/ml) for 2 hours, (D) Blood samples were treated with insulin (0.1 unit/ml) plus endotoxin (10ng/ml) for the indicated time, or with endotoxin alone (Endo, 10 ng/ml) for 2 hours. Leukocytes were isolated, lysed, and analyzed as described in FIG. 5. (E) Model describing the pattern of signaling indicators detected in leukocytes treated with endotoxin as compared to insulin.
To examine the signaling events linking endotoxin induced responses ex vivo with the altered metabolic/bioenergetic profile, the inventors examined the effect of pharmacological inhibitors implicated in the regulation of HIF-1α expression in other model systems. […] Furthermore, they indicate that distinct PI-3K effectors regulate HIF-1α stabilization and AMPKα degradation.
To examine the effect of metformin on human leukocytes bioenergetics, whole blood samples were pretreated with metformin ex vivo prior to the addition of endotoxin.
as §2, §3

[2] = diabetics treated with metformin; cited from earlier work
leukocytes = assay: Insulin treatment of whole blood from non-diabetic individuals; leukocyte immunoblotting; type: cell-based, human; conditions: insulin alone 0.1 unit/ml
Method: as §1, §2, §3
To establish the nature of the circulating factor enriched, in plasma from diabetics, multiple candidates were considered. As leukocytes express insulin receptor and circulating insulin is high in many type 2 and treated type 1 diabetic patients, insulin was chosen as the primary candidate. However, the insulin-signaling pathway in leukocytes is poorly characterized.

[3] = system: endotoxin-treated leukocytes; assay: Insulin plus endotoxin in the in vitro whole blood system; leukocyte immunoblotting; type: cell-based, human
Method: as §4, §2, §3
Following food intake, especially if high in fat, human leukocytes might be exposed to increases in both insulin and endotoxin. Therefore, the combined effects of insulin and endotoxin on leukocytes were examined using the in vitro whole blood system. […] Insulin at a dose as low as 0.1 unit/ml also delayed onset of pAkt and pS6K1 in endotoxin-treated leukocytes (FIG. 7D).

[4] = insulin 0.1 unit/ml plus endotoxin 10 ng/ml
[5] = insulin higher than 0.1 unit/ml plus endotoxin 10 ng/ml, 2 hours

Question: For `CCOC(=O)C1=CCCC[C@H]1S(=O)(=O)Nc1ccc(F)cc1Cl` [CLI-095], which “HIF-1α expression upon challenge with endotoxin” value (TLR4) is on record?
Answer: prevented

Question: What about the “pIRS-1 upon challenge with endotoxin” value (TLR4) of the same molecule?
Answer: prevented

Question: What about the “pS6K1 upon challenge with endotoxin” value (TLR4) of the same molecule?
Answer: prevented

Question: And the “pS6K1, pIRS-1, and HIF-1α expression following exposure to diabetic patients plasma” value [1]?
Answer: inhibited

Question: Which “HIF-1α expression in the liver” value (liver) does the source give for `Oc1ccc(C=Cc2cc(O)cc(O)c2)cc1` [Resveratrol, resveratrol] here?
Answer: prevents

Question: And the “Sirt1 degradation in the liver” value (liver)?
Answer: prevents

Question: And the “autophagy in the liver” value (liver)?
Answer: prevents

Question: With `O=C(Nc1ccccc1-c1cn2c(CN3CCNCC3)csc2n1)c1cnc2ccccc2n1` [SRT1720] as the molecule, how does the “endotoxin-induced AMPKα degradation (change in AMPKα expression)” value (human leukocytes) read?
Answer: did not

Question: And the “endotoxin-induced HIF-1α expression” value (human leukocytes)?
Answer: block

Question: With `OCc1ccc(-c2nn(Cc3ccccc3)c3ccccc23)o1` [YC-1, 3-(5′-hydroxymethyl-2′-furyl)-1-benzylindazole] as the molecule, how does the “autophagy in endotoxin-treated leukocytes” value (human leukocytes) read?
Answer: prevented

Question: What about the “endotoxin-induced AMPKα degradation (change in AMPKα expression)” value (human leukocytes) of the same molecule?
Answer: did not prevent

Question: What about the “endotoxin-induced autophagy (LC3-I/LC3-II)” value (human leukocytes) of the same molecule?
Answer: inhibited

Question: What about the “endotoxin-induced decline in ATP levels” value (human leukocytes) of the same molecule?
Answer: inhibited

Question: With `CN(C)C(=N)N=C(N)N` [metformin] as the molecule, how does the AMPKα phosphorylation (human leukocytes; metformin alone, no endotoxin) read?
Answer: induced

Question: And the “AMPKα phosphorylation (Thr 172)” value (human leukocytes; metformin pretreatment combined with endotoxin)?
Answer: induced

Question: And the “endotoxin-induced AMPKα degradation (change in AMPKα expression)” value (human leukocytes)?
Answer: prevents

Question: What about the “endotoxin-induced HIF-1α expression” value (human leukocytes) of the same molecule?
Answer: prevents

Question: What about the “endotoxin-induced AMPKα degradation (change in AMPKα expression)” value (human leukocytes; listed as Metformin) of the same molecule?
Answer: inhibited

Question: What about the “endotoxin-induced HIF-1α expression” value (human leukocytes; listed as Metformin) of the same molecule?
Answer: inhibited

Question: And the “less cancer than diabetics treated with insulin” value [2]?
Answer: 25-40%

Question: Which results are given for acriflavine?
Answer: autophagy in endotoxin-treated leukocytes (human leukocytes): prevented; endotoxin-induced AMPKα degradation (change in AMPKα expression) (human leukocytes): did not prevent; endotoxin-induced autophagy (LC3-I/LC3-II) (human leukocytes): inhibited; endotoxin-induced decline in ATP levels (human leukocytes): inhibited

Question: Which Raptor dephosphorylation (leukocytes) does the source give for “insulin: Insulin (Humalog Mix 50/50; Lilly)” here?
Answer: failed to induce

Question: And the “increase in HIF-1α expression” value (leukocytes)?
Answer: failed to induce

Question: What about the increase in autophagy (leukocytes) of the same molecule?
Answer: failed to induce

Question: And the pAkt (leukocytes)?
Answer: triggered increases

Question: And the pIRS-1 (leukocytes)?
Answer: failed to induce

Question: And the pS6K1 (leukocytes)?
Answer: triggered increases

Question: What about the “signaling pattern of leukocytes” value ([3]; endotoxin plus insulin at <0.1 unit/ml) of the same molecule?
Answer: the pattern observed in leukocytes treated with endotoxin alone

Question: And the “onset of pAkt” value [3, 4]?
Answer: delayed onset

Question: And the “onset of pS6K1” value [3, 4]?
Answer: delayed onset

Question: And the HIF-1α expression [3, 5]?
Answer: suppressed

Question: And the TLR4 expression [3, 5]?
Answer: suppressed

Question: And the autophagy [3, 5]?
Answer: suppressed

Question: What about the “dephosphorylation of Raptor” value [3, 5] of the same molecule?
Answer: suppressed

Question: And the pIRS-1 [3, 5]?
Answer: suppressed

Question: Which “HIF-1α expression upon challenge with endotoxin” value (TLR4) does the source give for polymyxin here?
Answer: prevented

Question: And the “pIRS-1 upon challenge with endotoxin” value (TLR4)?
Answer: prevented

Question: What about the “pS6K1 upon challenge with endotoxin” value (TLR4) of the same molecule?
Answer: prevented

Question: What about the “pS6K1, pIRS-1, and HIF-1α expression following exposure to diabetic patients plasma” value [1] of the same molecule?
Answer: inhibited
